PMC10578354 (Journal of Medicinal Chemistry, 2023)

Tested on: T24 and 5637 bladder cancer cell lines and healthy bladder epithelial cells (BdECs)
Test: MTT proliferation assay
Format: cell-based
Settings: T24 and 5637 vs BdEC, 72 h treatment, Figure 6B

SMILES: CN(C)CCOc1cccc(NC(=O)Cc2c[nH]c3cc(F)ccc23)c1 [NMX-10095, N-(3-(2-(Dimethylamino)ethoxy)phenyl)-2-(6-fluoro-1H-indol-3-yl)acetamide]
- inhibition of cell proliferation, cancer vs healthy cells: differential inhibition of cell proliferation
